Results: US9247741B2, “Use of macrocyclic picolinamides as fungicides” (DOW AGROSCIENCES LLC, priority 2013, dated 2016)
Like-named read-outs stand apart in the source and are kept apart here.

What was measured:
[1] = tested on: Mycosphaerella graminicola; Anamorph: Septoria tritici; assay: Leaf blotch of wheat (SEPTTR) disease control on wheat seedlings; assay type: in vivo; details: Zymoseptoria tritici, wheat; for pest or weed control at 100 ppm: 100 ppm (high volume); for pest or weed control at 121.5 g/ha: 121.5 g/H (low volume track spray)
Protocol: Evaluation of Fungicidal Activity: Leaf Blotch of Wheat (Mycosphaerella graminicola; Anamorph: Septoria tritici; Bayer Code […]) Technical grades of materials were dissolved in acetone, which were then mixed with nine volumes of water containing 110 ppm Triton X-100. The fungicide solutions were applied onto wheat seedlings using an automated booth sprayer to run-off. All sprayed plants were allowed to air dry prior to further handling. All fungicides were evaluated using the aforementioned method for their activity vs. all target diseases. Wheat leaf blotch and brown rust activity were also evaluated using track spray applications, in which case the fungicides were formulated as EC formulations, containing 0.1% Trycol 5941 in the spray solutions. Wheat plants (variety Yuma) were grown from seed in a greenhouse in 50% mineral soil/50% soil-less Metro mix until the first leaf was fully emerged, with 7-10 seedlings per pot. These plants were inoculated with an aqueous spore suspension of Septoria tritici either prior to or after fungicide treatments. After inoculation the plants were kept in 100% relative humidity (one day in a dark dew chamber followed by two to three days in a lighted dew chamber at 20° C.) to permit spores to germinate and infect the leaf. The plants were then transferred to a greenhouse set at 20° C. for disease to develop. When disease symptoms were fully expressed on the l^st leaves of untreated plants, infection levels were assessed on a scale of 0 to 100 percent disease severity. Percent disease control was calculated using the ratio of disease severity on treated plants relative to untreated plants.

Puccinia triticina = assay: Wheat brown rust (PUCCRT) disease control on wheat seedlings; assay type: in vivo; details: for pest or weed control at 100 ppm: 100 ppm (high volume); for pest or weed control at 121.5 g/ha: 121.5 g/H (low volume track spray)
Protocol: Technical grades of materials were dissolved in acetone, which were then mixed with nine volumes of water containing 110 ppm Triton X-100. The fungicide solutions were applied onto wheat seedlings using an automated booth sprayer to run-off. All sprayed plants were allowed to air dry prior to further handling. All fungicides were evaluated using the aforementioned method for their activity vs. all target diseases. Wheat leaf blotch and brown rust activity were also evaluated using track spray applications, in which case the fungicides were formulated as EC formulations, containing 0.1% Trycol 5941 in the spray solutions. Wheat plants (variety Yuma) were grown from seed in a greenhouse in 50% mineral soil/50% soil-less Metro mix until the first leaf was fully emerged, with 7-10 seedlings per pot. These plants were inoculated with an aqueous spore suspension of Septoria tritici either prior to or after fungicide treatments. After inoculation the plants were kept in 100% relative humidity (one day in a dark dew chamber followed by two to three days in a lighted dew chamber at 20° C.) to permit spores to germinate and infect the leaf. The plants were then transferred to a greenhouse set at 20° C. for disease to develop. When disease symptoms were fully expressed on the l^st leaves of untreated plants, infection levels were assessed on a scale of 0 to 100 percent disease severity. Percent disease control was calculated using the ratio of disease severity on treated plants relative to untreated plants. Evaluation of Fungicidal Activity: Wheat Brown Rust (Puccinia triticina; Synonym: Puccinia recondite f sp. tritici; Bayer code PUCCRT) Wheat plants (variety Yuma) were grown from seed in a greenhouse in 50% mineral soil/50% soil-less Metro mix until the first leaf was fully emerged, with 7-10 seedlings per pot. These plants were inoculated with an aqueous spore suspension of Puccinia triticina either prior to or after fungicide treatments. After inoculation the plants were kept in a dark dew room at 22° C. with 100% relative humidity overnight to permit spores to germinate and infect the leaf. The plants were then transferred to a greenhouse set at 24° C. for disease to develop. Fungicide formulation, application and disease assessment followed the procedures as described in the Example A.

[2] = 24 h, 1 Day Protectant, read-out: SEPTTR 1DP disease control rating
[3] = 72 h, 3 Day Curative, read-out: SEPTTR 3DC disease control rating
[4] = 24 h, 1 Day Protectant, read-out: PUCCRT 1DP disease control rating
[5] = 72 h, 3 Day Curative, read-out: PUCCRT 3DC disease control rating

Compound	pest or weed control at 100 ppm [1, 2]	pest or weed control at 100 ppm [1, 3]	pest or weed control at 100 ppm (Puccinia triticina; [4])	pest or weed control at 100 ppm (Puccinia triticina; [5])	pest or weed control at 121.5 g/ha [1, 2]	pest or weed control at 121.5 g/ha [1, 3]	pest or weed control at 121.5 g/ha (Puccinia triticina; [4])	pest or weed control at 121.5 g/ha (Puccinia triticina; [5])
COc1ccnc(C(=O)N[C@H]2CCC[C@H](OCC3CC3)[C@@H](Cc3ccccc3)[C@H](C)OC2=O)c1OCOC(C)=O [Compound 56]	> 70%	> 70%	> 70%	> 70%	–	–	–	–
COc1ccnc(C(=O)N[C@H]2CCC[C@H](OCC3CC3)[C@@H](Cc3ccccc3)[C@H](C)OC2=O)c1OC(C)=O [Compound 76]	> 70%	> 70%	> 70%	> 70%	–	–	–	–
CCCC[C@H]1[C@H](C)OC(=O)[C@@H](NC(=O)c2nccc(OC)c2OCOC(C)=O)CCC[C@@H]1OCc1ccccc1 [Compound 15]	–	–	–	–	> 70%	> 70%	> 70%	> 70%
CCCC[C@H]1[C@H](C)OC(=O)[C@@H](NC(=O)c2nccc(OC)c2O)CCC[C@@H]1Oc1ccccc1 [Compound 29]	> 70%	< 70%	> 70%	> 70%	–	–	–	–
CCCC[C@H]1[C@H](C)OC(=O)[C@@H](NC(=O)c2nccc(OC)c2OCOC(=O)COCC)CCC[C@@H]1OC(=O)C(C)C [Compound 71, (2S,3S,4S,8S)-3-butyl-8-(3-((2-ethoxyacetoxyl)methoxy)-4-methoxypicolinamido)-2-methyl-9-oxooxonan-4-yl isobutyrate]	–	–	–	–	> 70%	> 70%	> 70%	> 70%
CCCC[C@H]1[C@H](C)OC(=O)[C@@H](NC(=O)c2nccc(OC)c2OCOC(C)=O)CCC[C@@H]1OC(=O)C(C)C [Compound 50]	–	–	–	–	> 70%	> 70%	> 70%	> 70%
CCCC[C@H]1[C@H](C)OC(=O)[C@@H](NC(=O)c2nccc(OC)c2OCOC(C)=O)CCC[C@@H]1OCCCC(F)(F)F [Compound 52]	–	–	–	–	> 70%	> 70%	> 70%	> 70%
COc1ccnc(C(=O)N[C@H]2CCC[C@H](Oc3ccc(C)cc3)[C@@H](Cc3ccc(F)cc3)[C@H](C)OC2=O)c1OCOC(C)=O [Compound 42]	–	–	–	–	> 70%	> 70%	> 70%	< 70%
CCCC[C@H]1[C@H](C)OC(=O)[C@@H](NC(=O)c2nccc(OC)c2OC(C)=O)CCC[C@@H]1OCc1ccccc1 [Compound 63]	–	–	–	–	> 70%	> 70%	> 70%	> 70%
CCCC[C@H]1[C@H](C)OC(=O)[C@@H](NC(=O)c2nccc(OC)c2O)CCC[C@@H]1OCc1ccccc1 [Compound 47]	> 70%	< 70%	> 70%	> 70%	–	–	–	–
COc1ccnc(C(=O)N[C@H]2CCC[C@H](OCC(C)C)[C@@H](Cc3ccccc3)[C@H](C)OC2=O)c1OC(C)=O [Compound 72]	–	–	–	–	> 70%	> 70%	> 70%	> 70%
CCCC[C@H]1[C@H](C)OC(=O)[C@@H](NC(=O)c2nccc(OC)c2O)CCC[C@@H]1OCC1CC1 [Compound 32]	> 70%	> 70%	> 70%	> 70%	–	–	–	–
COc1ccnc(C(=O)N[C@H]2CCC[C@H](OC(=O)C3CC3)[C@@H](Cc3ccc(F)cc3)[C@H](C)OC2=O)c1O [Compound 2]	> 70%	< 70%	> 70%	> 70%	–	–	–	–
